US9320718B2, “Multilayer coating form of orally administered pharmaceutical composition containing omega-3 fatty acid or alkyl ester thereof and statin based drug” (KUHNIL PHARM. CO., LTD., priority 2012, dated 2016)

Columns and labels:
Format in all cases: physicochemical
[1] = Compatibility of atorvastatin and coating material: related compounds on storage under severe conditions (HPLC); settings: atorvastatin 0.5 mg with coating material 2.5 mg, vacuum-dried, stored at about 60° C., relative humidity about 85%
Description: (§1) To form an atorvastatin-containing drug-coating layer, compatibility of atorvastatin with various coating materials (coating agents and surfactants) were evaluated. About 2.5 mg of each coating material as shown in Table 2 was dissolved in 5 mL of a 75% aqueous ethanol solution, and about 0.5 mg of atorvastatin was added thereto and then completely dissolved. About 0.5 mg of atorvastatin was completely dissolved in 5 mL of a 75% aqueous ethanol solution as a control group for the compatibility evaluation. Each of the resulting solutions was vacuum-dried at about 50° C. for about 24 hours to completely remove the solvent, thereby preparing test samples. While each test temple was stored under severe conditions (at a temperature of about 60° C. and a relative humidity of about 85%), a degree of generation of related compounds with time was observed. The related compounds were analyzed by HPLC in the following manner.
<Atorvastatin Analysis Method>
(§2) Each test sample was dissolved in 25 mL of methanol, followed by a 2-fold dilution with a mobile phase and filtration through a 0.45-um filter, thereby preparing analysis samples.
Mobile phase; acetonitrile: 0.5% (v/v) aqueous formic acid solution=50:50

[2] = Compatibility of pitavastatin and coating material: related compounds on storage under severe conditions (HPLC); settings: pitavastatin 0.5 mg with coating material 2.5 mg, vacuum-dried, stored at about 60° C., relative humidity about 85%
Description: as §1, with “To form a pitavastatin-containing drug-coating layer,” for “To form an atorvastatin-containing drug-coating layer,”, “compatibility of pitavastatin with various” for “compatibility of atorvastatin with various”, “in Table 3 was dissolved” for “in Table 2 was dissolved”, “mg of pitavastatin was added” for “mg of atorvastatin was added”, “mg of pitavastatin alone was completely” for “mg of atorvastatin was completely”, “degree of generated related compounds” for “degree of generation of related compounds”
<Pitavastatin Analysis Method>
as §2
Mobile phase; acetonitrile: 0.1% (v/v) aqueous trifluoroacetic acid (TFA) solution=60:40

[3] = Compatibility of rosuvastatin and coating material: related compounds on storage under severe conditions (HPLC); settings: rosuvastatin 0.5 mg with coating material 2.5 mg, vacuum-dried, stored at about 60° C., relative humidity about 85%
Description: To form a rosuvastatin-containing drug-coating layer, compatibility of rosuvastatin with various coating materials (coating agents and surfactants) were evaluated. About 2.5 mg of each coating material as shown in Table 1 was dissolved in 5 mL of a 75% aqueous ethanol solution, and about 0.5 mg of rosuvastatin was added thereto and then completely dissolved. About 0.5 mg of rosuvastatin alone was completely dissolved in 5 mL of a 75% aqueous ethanol solution as a control group for the compatibility evaluation. Each of the resulting solutions was vacuum-dried at about 50° C. for about 24 hours to completely remove the solvent, thereby preparing a test sample. While each test temple was stored under severe conditions (at a temperature of about 60° C. and a relative humidity of about 85%), a degree of generation of related compounds with time was observed. The related compounds were analyzed by high-performance liquid chromatography (HPLC) in the following manner.
<Rosuvastatin Analysis Method>
The test sample was dissolved in 25 mL of methanol, followed by a 2-fold dilution with a mobile phase and filtration through a 0.45-um filter, thereby preparing an analysis sample.
Mobile phase; Acetonitrile: 0.5% (v/v) aqueous formic acid solution=50:50

CC(C)c1c(C(=O)Nc2ccccc2)c(-c2ccccc2)c(-c2ccc(F)cc2)n1CC[C@@H](O)C[C@@H](O)CC(=O)O [Atorvastatin]
Related compound (%, 1st week) [1]: 0.3% | Related compound (%, 1st week) ([1]; listed as atorvastatin): About 0.3% | Related compound (%, 3rd week) [1]: 3.3% | Related compound (%, 3rd week) ([1]; listed as atorvastatin): about 3.3%

O=C(O)C[C@H](O)C[C@H](O)/C=C/c1c(C2CC2)nc2ccccc2c1-c1ccc(F)cc1 [Pitavastatin]
Related compound (%, 1st week) [2]: 0.1% | Related compound (%, 1st week) ([2]; listed as pitavastatin): About 0.1% | Related compound (%, 3rd week) [2]: 0.2% | Related compound (%, 3rd week) ([2]; listed as pitavastatin): about 0.2%

CC(C)c1nc(N(C)S(C)(=O)=O)nc(-c2ccc(F)cc2)c1/C=C/[C@@H](O)C[C@@H](O)CC(=O)O [Rosuvastatin]
Related compound (%, 1st week) [3]: 1.4% | Related compound (%, 1st week) ([3]; listed as rosuvastatin): About 1.4% | Related compound (%, 3rd week) [3]: 5.2% | Related compound (%, 3rd week) ([3]; listed as rosuvastatin): about 5.4%
